These are literature values, as cited in patent publication US6072029A, “Derivatives of human α1 -antitrypsin and process for their preparation” (priority 1984, dated 2000).

The series deals with thrombin.

Read-outs that look alike come from different tables or passages of the source.

With “α1 -AT: natural human α1-antitrypsin, serine protease inhibitor”, the inactivation of thrombin result (increasing molar excess of α1-antitrypsin) is “completely inhibited”; the inactivation of thrombin entry (molar ratio of 1:1) was “weak and incomplete”.
